“Also recorded” adds a separate entry of the source.
Experiments:
[1] = biological target: Cu-albumin complex (bovine serum albumin) (Bos taurus, UniProt P02769); conditions: 750 μM copper, 250 μM albumin, molar ratio Cu-albumin-chelator 3:1:3
Method: 10 mg of fatty acid free bovine serum albumin (subsequently referred to as albumin, Carl Roth, Karlsruhe, Germany) were resuspended in 10 mM Tris-HCl buffer (pH 7.4) and mixed with 45 μL of 10 mM copper chloride. […] Briefly, 50 μL of each fraction were mixed with 10 μL 0.2% NQS, 10 μL of 0.2 M sodium phosphate buffer (pH 12.0) and 30 μL ddH2O in a clear 96-well plate. The samples were incubated for 20 min and absorbance was measured at 452 nm.

[2] = biological target: Cu-albumin (Bos taurus, UniProt P02769)
Method: EPR spectra were recorded at 77 K using an ECS106 spectrometer (Brucker BioSpin, Karlsruhe, Germany) operating in X-band at about 9.5 GHz.

[3] = system: HepG2 cells; assay: Cu-albumin cell toxicity, CellTiter-Glo, HepG2; format: cell-based, human
Method: (§1) SHSY5Y (human neuroblastoma), U87MG (human astrocytoma), EA.hy926 (human endothelium) and HepG2 (human hepatocellular carcinoma) cells were from ATCC (Wesel, Germany) and were cultured in Dulbecco's Modified Eagle Medium (DMEM) supplemented with 10% FCS (Biochrom, Berlin, Germany) and 1% antibiotic-antimycotic (Life Technologies, Carlsbad, USA). All cells were maintained at 37° C. in a humidified atmosphere with 5% CO2.

[4] = system: EA.hy926 cells; assay: Cu-albumin cell toxicity, CellTiter-Glo, EA.hy926; format: cell-based, human
Method: as §1

[5] = system: HepG2, EA.hy926, U87MG and SHSY5Y cells; assay: Toxicity of the chelator itself in a copper-free setting, CellTiter-Glo; conditions: without external Cu-albumin addition
Method: as §1

[6] = system: EA.hy926 cells; assay: High-resolution respirometry, EA.hy926; format: cell-based, human; conditions: EA.hy926, Cu-albumin-treated, vs Cu-albumin alone
Method: Oxygen consumption was assessed by high-resolution respirometry (HRR) using the Oxygraph-2k and DatLab 7.0 (Oroboros Instruments GmbH, Innsbruck, Austria) as described previously (Pesta, D. and E. Gnaiger, Methods Mol Biol, 2012. 810: p. 25-58). Per chamber, 1.5-2×10^6 living cells were supplied in 2 mL of MiR05 buffer (0.5 mM EGTA, 3 mM MgCl2, 60 mM lactobionic acid, 20 mM taurine, 10 mM KH2PO4, 20 mM HEPES, 110 mM sucrose, 1 g/L albumin, pH 7.1) and routine respiration was measured. Addition of 2.5 μM oligomycin (inhibitor of the FOF1-ATPase) enabled the measurement of leak respiration and stepwise addition of CCCP (1 μL steps from 1 mM stock solution) allowed the determination of the maximum oxygen flux and thereby the capacity of the electron transport system (ETS). The oxygen flux was baseline-corrected for non-mitochondrial oxygen consuming processes (ROX) by the addition of 2.5 μM of the complex III-inhibitor antimycin A.

[7] = system: primary porcine brain capillary endothelial cells (PBCECs); conditions: 750 μM copper and 250 μM albumin, 750 μM ALXN1840, 48 h
From the text: (§2) For transepithelial resistance (TEER) experiments (Srinivasan, B., et al., J Lab Autom, 2015. 20(2): p. 107-26), cryopreserved primary porcine brain capillary endothelial cells (PBCECs) were thawed and seeded either on rat tail collagen-coated 96-well plates for cytotoxicity testing using the Neutral red assay (Repetto, G., A. del Peso, and J. L. Zurita, Nat Protoc, 2008. 3(7): p. 1125-31) or Transwell® inserts (area: 1.12 cm^2, pore size: 0.4 μm: Corning, N.Y., USA) for barrier integrity studies. Cells were cultured for 48 hours in Earle's Medium 199 supplemented with 10% FCS, 50 U penicillin/mL, 50 μg/mL streptomycin, 100 μg/mL gentamycin and 0.7 mM I-glutamine and maintained at 37° C. in a humidified atmosphere with 5% CO2. […] TEER and capacitance values were continuously monitored over 48 h using a CellZscope device (nanoAnalytics, Münster, Germany). Only PBCEC monolayers with initial TEER values >600Ωcm^2 and capacitance values between 0.45 and 0.6 μF/cm^2 were used for permeability studies (Bornhorst, J., et al., J Biol Chem, 2012. 287(21): p. 17140-51). The barrier integrity was calculated by normalizing the TEER values to the respective start values.

[8] = system: PBCEC monolayers; assay: Copper in the basolateral compartment of the Transwell PBCEC model (ICP-MS/MS); format: cell-based, porcine; conditions: 250 μM copper and 83.3 μM albumin, 250 μM chelator, after 48 h
From the text: as §2

[9] = system: Zonula occludens-1 (ZO-1); assay: Immunocytochemistry staining of Zonula occludens-1 in PBCEC monolayers; format: cell-based, porcine; conditions: 250 μM copper and 83.3 μM albumin, 250 μM chelator
Method: Total copper was determined by ICP-MS/MS as previously described (Kopp, J. F., et al., J Trace Elem Med Biol, 2019. 54: p. 221-225). For the immunocytochemical staining of tight junction proteins, confluent PBCECs cultivated on Transwell® membrane inserts were processed as previously described ([…]., et al., Archives of Toxicology 2018. 92(2): p. 823-832). Briefly, PBCECs were fixed with formaldehyde and permeabilized using Triton X-100. After blocking of unspecific binding sites by albumin, the cells were incubated with the either anti-claudin 5 or anti-ZO-1 antibody (Zytomed Systems GmbH, Berlin, Germany). Following a second blocking step, the cells were treated with an Alexa Fluor® 488 conjugated secondary antibody (Invitrogen, Molecular Probes Inc., Eugene, USA). Hoechst 33258 (Merck, Darmstadt, Germany) was used to stain cell nuclei. Subsequently, membranes were cut out of the inserts and mounted in Aqua Poly/Mount (Polysciences Inc., Washington, USA). After a solidification period of 24 hours, the samples were evaluated using a DM6 B fluorescence microscope by Leica Microsystems CMS GmbH (Wetzlar, Germany) in combination with the Leica Application Suite X.

[10] = system: patients with WD; conditions: cited from earlier work

Cu-albumin, sequence (P02769 25-607): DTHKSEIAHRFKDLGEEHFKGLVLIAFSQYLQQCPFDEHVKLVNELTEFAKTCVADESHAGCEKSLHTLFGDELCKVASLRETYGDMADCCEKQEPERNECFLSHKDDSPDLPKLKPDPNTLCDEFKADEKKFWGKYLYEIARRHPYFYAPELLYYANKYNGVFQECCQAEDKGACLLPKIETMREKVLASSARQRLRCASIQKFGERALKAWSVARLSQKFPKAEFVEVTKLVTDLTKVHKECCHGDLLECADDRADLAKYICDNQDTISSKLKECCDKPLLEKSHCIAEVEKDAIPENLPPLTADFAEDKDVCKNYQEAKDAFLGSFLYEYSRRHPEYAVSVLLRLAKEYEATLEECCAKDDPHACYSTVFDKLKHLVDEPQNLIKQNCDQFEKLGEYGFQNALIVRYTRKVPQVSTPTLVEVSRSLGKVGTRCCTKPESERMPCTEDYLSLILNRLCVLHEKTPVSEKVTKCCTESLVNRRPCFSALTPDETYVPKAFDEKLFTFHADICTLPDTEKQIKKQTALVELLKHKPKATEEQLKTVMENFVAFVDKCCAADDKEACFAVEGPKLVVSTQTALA
Cu-albumin complex (bovine serum albumin), sequence (P02769 25-607, one chain of several): as the sequence (P02769 25-607) above

## C[N+](C)(C)CCO.C[N+](C)(C)CCO.[SH-].[SH-].[S]=[Mo]=[S] [ALXN1840, bis-choline tetrathiomolybdate]
[1]
  distribution of copper, albumin and chelator over gel filtration fractions: one prominent gel filtration peak appeared; also recorded: albumin, molybdenum and copper were present in the same fractions
[2]; TPC versus Cu-albumin
  drop of signal intensity of EPR-active cupric copper: around 50%
[2]; albumin, copper and ALXN1840
  copper redox status in the tripartite complex (EPR): partial reduction of copper
[3]; HepG2, 750 μM chelator
  CellTiterGlo-assessed cell viability / Cu-albumin toxicity: protected
[3]; HepG2, low dose of chelator (250 μM)
  CellTiterGlo-assessed cell viability / Cu-albumin toxicity: partially rescued
[4]; EA.hy926, 750 μM chelator
  CellTiterGlo-assessed cell viability / Cu-albumin toxicity: protected
[4]; EA.hy926, low dose of chelator (250 μM)
  CellTiterGlo-assessed cell viability / Cu-albumin toxicity: partially rescued
[5]
  CellTiterGlo-assessed cell viability with chelator alone: becomes toxic at elevated concentrations; also recorded: dose-dependent reduction
[6]
  mitochondrial respiration (ETS): significantly increased
  respiratory control ratio E/L (ETS to leak respiration): significantly increased
[7]
  cell viability (neutral red): could be rescued
[8]
  copper in the basolateral compartment (copper influx): fully avoided; also recorded: significantly lower amount of copper
[9]
  ZO-1 distribution (uneven, diffuse staining upon Cu-albumin): could be fully protected; also recorded: prevented
[10]; at Week 24 compared with baseline, 28 patients with WD
  reduction of mean serum non-ceruloplasmin-bound Cu (NCC): 72%
[10]; mild to moderate, asymptomatic, normalized with dose reduction or interruption
  patients with reversible liver function test elevations: 39%
[10]; most AEs mild (Grade 1) to moderate (Grade 2)
  tolerability: generally well-tolerated
[10]; upon treatment initiation
  paradoxical neurological worsening: No paradoxical neurological worsening was observed

— patent publication US20220387370A1, “METHODS OF REDUCING NEUROLOGICAL DAMAGE IN WILSON DISEASE PATIENTS” (priority 2019, published 2022)
